Tests used:
Format in all cases: functional
[1] = tested on: Campylobacter coli; assay: Antimicrobial activity against Campylobacter coli by disk diffusion method
[2] = tested on: Campylobacter jejuni; assay: Antimicrobial activity against Campylobacter jejuni by disk diffusion method
[3] = tested on: Campylobacter coli; assay: Antimicrobial activity against Campylobacter coli assessed as resistant rate

Row | Structure (SMILES) | diameter of the inhibition zone (DIZ) [1] | diameter of the inhibition zone (DIZ) [2] | Activity [3]
1 | O=C(O)c1cn(C2CC2)c2cc(N3CCNCC3)c(F)cc2c1=O [CIPROFLOXACIN] | >=20 mm | – | –
2 | CC[C@H]1OC(=O)[C@H](C)[C@@H](O[C@H]2C[C@@](C)(OC)[C@@H](O)[C@H](C)O2)[C@H](C)[C@@H](O[C@@H]2O[C@H](C)C[C@H](N(C)C)[C@H]2O)[C@](C)(O)C[C@@H](C)C(=O)[C@H](C)[C@@H](O)[C@]1(C)O [ERYTHROMYCIN] | >=15 mm | – | –
3 | CN(C)[C@@H]1C(O)=C(C(N)=O)C(=O)[C@@]2(O)C(O)=C3C(=O)c4c(O)cccc4[C@@](C)(O)[C@H]3C[C@@H]12 [TETRACYCLINE] | >=26 mm | <=20 mm | 48%
